As usually defined, the IC50 is the point on the concentration scale where inhibition reaches its midpoint. A higher IC50 goes with weaker potency in that assay.

For series [1], the system named is breast cancer cells MDA-MB-231. In words: Growth of breast cancer cells MDA-MB-231. The format is cell-based. The note with it: 72 hours of incubation. As to the method:
(§1) For the experiments shown in FIG. 1, cultured human Non Small Cell Lung Cancer cells (A549) in RPMI 1640 were used, supplemented with 10% foetal bovine serum and antibiotics, at 37° C. and 5% CO2. […] After treatment, cell count was performed and the study of the mechanisms involved in the antitumor activity of compounds was evaluated by flow cytometry. […] These values correspond to averages of three independent experiments.
(§2) These charts show the antitumor efficacy of the compounds of this invention against the growth of breast cancer cells, brain (glioma), and lung cancer. […] The other experimental conditions are identical to those described in the preceding paragraph.

For series [2], the system named is brain cancer cell (glioma) U118. In words: Brain cancer (glioma) U118 cell growth. The format is cell-based. The settings on record: 72 hours of incubation. As to the method:
For the experiments shown in FIG. 1, cultured human Non Small Cell Lung Cancer cells (A549) in RPMI 1640 were used, supplemented with 10% foetal bovine serum and antibiotics, at 37° C. and 5% CO2. Cells were maintained in culture for 48 hours in the presence or absence of D-PUFAs and PUFAs indicated in Table 2 at a concentration of 250 µM. After treatment, cell count was performed and the study of the mechanisms involved in the antitumor activity of compounds was evaluated by flow cytometry. […] These values correspond to averages of three independent experiments.
as §2

Series [3] has as its system lung cancer cells A549. Put plainly: Growth of lung cancer cells A549 (IC50). It is filed as cell-based, human. The note with it: 72 hours of incubation. As to the method: as §1, §2
The nature of series [4]: Lamellar-to-hexagonal (HII) transition temperature in DEPE model membranes by Differential Scanning Calorimetry. It is filed as physicochemical. The settings on record: DEPE membranes, DEPE:D-PUFA 10:1 (mol:mol). The procedure: The transition temperature was determined by Differential Scanning Calorimetry. The proportion DEPE:D-PUFA was 10:1 (mol:mol) in all cases. Lamellar-to-hexagonal transition is an important parameter that reflects relevant signalling properties of cell membranes. […] When this occurs, certain peripheral membrane proteins (such as G proteins, protein kinase C or Ras protein) can more easily bind to the membrane, while others have a poor interaction (e.g., the Gα-protein), so changes in the HII transition temperature are important in regulating cellular functions related to health and human therapy (Escriba et al., 1995, Vogler et al., 2004; Escriba, 2006).
Control values correspond to model membranes in the absence of fatty acids. The reduction in HII transition temperature obtained by using the D-PUFA of the invention indicates an increased induction of membrane discontinuities, generating anchoring sites in the membrane for peripheral proteins and leads to better regulation of cell signalling and, therefore, greater effectiveness in the control of certain diseases.
A general note: DSC measures the heat that a sample takes up or gives off during a temperature scan.

Take `CCC=CCC=CCC=CCCCCCCC(CO)C(=O)OCC` (stereo not drawn) [183Q1]: the IC50 amounted to 312 µM in series [1], 282 µM in series [2] and 273 µM in series [3].
The compound `CCC=CCC=CCC=CCCCCCCC(O)C(=O)OC` (stereo not drawn) [183D1] displayed a Temperature of lamellar-to-hexagonal transition in series [4] of 51.1 °C. The results for the half-inhibitory concentration (IC50) in series [1] and in series [3] were 245 µM and 326 µM, respectively.
Regarding `CCCCCC=CCC=CCC=CCCCC(Cl)C(=O)OCC` (stereo not drawn) [183O2], the Temperature of lamellar-to-hexagonal transition in series [4] is 51.3 °C. In addition, the IC50 in series [1] is 217 µM; in series [3], 318 µM.
In the case of `CCC=CCC=CCC=CCC=CCC=CCC=CCC(OC)C(=O)OC` (stereo not drawn) [226H1], the IC50 in series [1] is 199 µM; in series [2] it was 294 µM; in series [3], 247 µM.
Consider `CCCCCC=CCC=CCC=CCC=CCCC(C(=O)OCC)N(OCC)OCC` (stereo not drawn) [204W1], for which the IC50 came to 311 µM in series [1], 287 µM in series [2] and 341 µM in series [3].
For the compound `CCC=CCC=CCC=CCC=CCC=CCCC(OC)C(=O)OC` (stereo not drawn) [205H1], the IC50 amounted to 282 µM in series [1], 439 µM in series [2] and 290 µM in series [3].
For the compound `CCC=CCC=CCC=CCC=CCC=CCC=CCC(O)C(=O)O` (stereo not drawn) [226C1], the results for the IC50 in series [1], in series [2] and in series [3] were 210 µM, 237 µM and 214 µM, respectively.
Taken in the same sequence, the figures for `CCCCCC=CCC=CCC=CCC=CCCC(OC=O)C(=O)OC` (stereo not drawn) [204U1] were 369 µM, 263 µM and 270 µM.
For `CCCCCC=CCC=CCCCCCCC(CO)C(=O)OCC` (stereo not drawn) [182Q1], the half-maximal inhibitory concentration (IC50) turned out to be 328 µM in series [1] and 293 µM in series [3].
Regarding `CCC=CCC=CCC=CCC=CCC=CCCC(F)C(=O)OCC` (stereo not drawn) [205T1], the IC50 in series [1] was determined as 233 µM; in series [2], 427 µM; in series [3] it was 322 µM.
Turning to `CCCCCC=CCC=CCC=CCC=CCCC(OC)C(=O)OC` (stereo not drawn) [204H1], the IC50 came to 363 µM in series [1], 263 µM in series [2] and 398 µM in series [3].
Take `CCCCCC=CCC=CCC=CCC=CCCC(OC)C(=O)OCC` (stereo not drawn) [204I1]: the IC50 came out at 315 µM in series [1], 328 µM in series [2] and 459 µM in series [3].
Taken in the same sequence, the figures for `CCCCCC=CCC=CCC=CCC=CCCC(F)C(=O)OCC` (stereo not drawn) [204T1] were 317 µM, 385 µM and 352 µM.
As for `CCCCCC=CCC=CCCCCCCC(C)C(=O)OC` (stereo not drawn) [182M1], the IC50 in series [1] is 362 µM; in series [2] it was 238 µM; in series [3] it was 286 µM.
For `CCC=CCC=CCC=CCC=CCC=CCC=CCC(OC)C(=O)OCC` (stereo not drawn) [226I1], in that order: 241 µM, 327 µM and 298 µM.
For `CCCCCC=CCC=CCC=CCCCC(F)C(=O)OCC` (stereo not drawn) [183T2], in that order: 216 µM, 423 µM and 279 µM.
For the compound `CCC=CCC=CCC=CCC=CCC=CCC=CCC(C)C(=O)OC` (stereo not drawn) [226M1], the IC50 in series [1] came out at 267 µM; in series [2] it was 306 µM; in series [3], 208 µM.
Taken in the same sequence, the figures for `CCCCCC=CCC=CCC=CCCCC(OC)C(=O)OC` (stereo not drawn) [183H2] were 170 µM, 443 µM and 219 µM.
With `CCC=CCC=CCC=CCC=CCC=CCCC(C)C(=O)OC` (stereo not drawn) [205M1], the 50% inhibitory concentration (IC50) in series [1] came out at 216 µM; in series [2], 462 µM; in series [3], 293 µM.
Regarding `CCCCCC=CCC=CCCCCCCC(C(=O)OCC)N(OCC)OCC` (stereo not drawn) [182W1], the IC50 in series [1] was found to be 391 µM; in series [2], 246 µM; in series [3], 416 µM.
As to `CCCCCC=CCC=CCC=CCCCC(OC=O)C(=O)OC` (stereo not drawn) [183U2], the IC50 in series [1] came out at 228 µM; in series [2] it was 380 µM; in series [3], 287 µM.
For the compound `CCCCCC=CCC=CCC=CCC=CCCC(OC(C)=O)C(=O)OC` (stereo not drawn) [204J1], the results for the IC50 in series [1], in series [2] and in series [3] were 285 µM, 296 µM and 362 µM, respectively.
Turning to `CCC=CCC=CCC=CCC=CCC=CCCC(O)C(=O)O` (stereo not drawn) [205C1], the IC50 was found to be 223 µM in series [1], 442 µM in series [2] and 325 µM in series [3].
For the compound `CCC=CCC=CCC=CCCCCCCC(F)C(=O)OCC` (stereo not drawn) [183T1], the values for the IC50 in series [1], in series [2] and in series [3] were 290 µM, 368 µM and 367 µM, respectively.
As for `CCC=CCC=CCC=CCC=CCC=CCC=CCC(CO)C(=O)OCC` (stereo not drawn) [226Q1], the IC50 is 263 µM in series [1], 254 µM in series [2] and 252 µM in series [3].
Taken in the same sequence, the figures for `CCC=CCC=CCC=CCC=CCC=CCCC(OC=O)C(=O)OC` (stereo not drawn) [205U1] were 272 µM, 454 µM and 426 µM.
With `CCCCCC=CCC=CCCCCCCC(OC)C(=O)OC` (stereo not drawn) [182H1], the results for the half-inhibitory concentration (IC50) in series [1], in series [2] and in series [3] were 402 µM, 267 µM and 462 µM, respectively.
With `CCCCCC=CCC=CCC=CCCCC(O)C(=O)O` (stereo not drawn) [183C2], the IC50 amounted to 168 µM in series [1], 379 µM in series [2] and 241 µM in series [3].
Taken in the same sequence, the figures for `CCC=CCC=CCC=CCCCCCCC(OC)C(=O)OC` (stereo not drawn) [183H1] were 308 µM, 408 µM and 319 µM.
Take `CCC=CCC=CCC=CCCCCCCC(OC=O)C(=O)OC` (stereo not drawn) [183U1]: the IC50 was 344 µM in series [1], 343 µM in series [2] and 294 µM in series [3].
For the compound `CCC=CCC=CCC=CCCCCCCC(C)C(=O)OC` (stereo not drawn) [183M1], the IC50 is 407 µM in series [1], 349 µM in series [2] and 322 µM in series [3].
For the compound `CCCCCC=CCC=CCC=CCC=CCCC(CO)C(=O)OCC` (stereo not drawn) [204Q1], the values for the IC50 in series [1], in series [2] and in series [3] were 306 µM, 324 µM and 348 µM, respectively.
As for `CCC=CCC=CCC=CCC=CCC=CCC=CCC(F)C(=O)OCC` (stereo not drawn) [226T1], the IC50 in series [1] is 199 µM; in series [2] it was 263 µM; in series [3] it was 243 µM.
Regarding `CCCCCC=CCC=CCC=CCCCC(C(=O)OCC)N(OCC)OCC` (stereo not drawn) [183W2], the IC50 worked out at 203 µM in series [1], 438 µM in series [2] and 212 µM in series [3].
As for `CCC=CCC=CCC=CCC=CCC=CCCC(C(=O)OCC)N(OCC)OCC` (stereo not drawn) [205W1], the IC50 in series [1] was determined as 256 µM; in series [2] it was 443 µM; in series [3], 420 µM.
Taken in the same sequence, the figures for `CCCCCC=CCC=CCC=CCCCC(C)C(=O)OC` (stereo not drawn) [183M2] were 164 µM, 407 µM and 248 µM.
Regarding `CCCCCC=CCC=CCCCCCCC(F)C(=O)OCC` (stereo not drawn) [182T1], the values for the IC50 in series [1], in series [2] and in series [3] were 391 µM, 214 µM and 379 µM, respectively.
Turning to `CCCCCC=CCC=CCCCCCCC(O)C(=O)O` (stereo not drawn) [182C1], the IC50 was 386 µM in series [1], 208 µM in series [2] and 635 µM in series [3].
As to `CCCCCC=CCC=CCC=CCCCC(CO)C(=O)OCC` (stereo not drawn) [183Q2], the 50% inhibitory concentration (IC50) was 205 µM in series [1], 392 µM in series [2] and 314 µM in series [3].
`CCCCCC=CCC=CCCCCCCC(OC=O)C(=O)OC` (stereo not drawn) [182U1]: the IC50 is 410 µM in series [1], 212 µM in series [2] and 255 µM in series [3].
As for `CCC=CCC=CCC=CCCCCCCC(OC)C(=O)OCC` (stereo not drawn) [183I1], the IC50 in series [1] is 274 µM; in series [2], 321 µM; in series [3], 348 µM.
Take `CCCCCC=CCC=CCCCCCCC(OC)C(=O)OCC` (stereo not drawn) [182I1]: the IC50 in series [1] is 411 µM; in series [2], 240 µM; in series [3], 673 µM.
On to `CCCCCC=CCC=CCC=CCC=CCCC(O)C(=O)O` (stereo not drawn) [204C1], for which the concentration for half-maximal inhibition (IC50) in series [1] was determined as 389 µM; in series [2] it was 287 µM; in series [3] it was 521 µM.
Turning to `CCCCCC=CCC=CCC=CCC=CCCC(C)C(=O)OC` (stereo not drawn) [204M1], the IC50 in series [1] was 321 µM; in series [2], 309 µM; in series [3], 375 µM.
Turning to `CCCCCC=CCC=CCC=CCCCC(OC)C(=O)OCC` (stereo not drawn) [183I2], the IC50 in series [1] worked out at 210 µM; in series [2] it was 432 µM; in series [3] it was 276 µM.
On to `CCC=CCC=CCC=CCC=CCC=CCCC(OC)C(=O)OCC` (stereo not drawn) [205I1], for which the IC50 in series [1] turned out to be 261 µM; in series [2], 510 µM; in series [3], 351 µM.
In the case of `CCC=CCC=CCC=CCCCCCCC(C(=O)OCC)N(OCC)OCC` (stereo not drawn) [183W1], the IC50 is 311 µM in series [1] and 352 µM in series [3].
Taken in the same sequence, the figures for `CCC=CCC=CCC=CCCCCCCC(O)C(=O)O` (stereo not drawn) [183C1] were 289 µM and 281 µM.
In the case of `CCC=CCC=CCC=CCC=CCC=CCCC(CO)C(=O)OCC` (stereo not drawn) [205Q1], the IC50 in series [1] worked out at 247 µM; in series [2], 419 µM; in series [3], 365 µM.

The values are drawn from patent US11253497B2, “Use of derivatives of polyunsaturated fatty acids as medicaments” (Lipopharma Therapeutics, S.L., priority 2009, dated 2022).
